Test results as given in patent US12398154B2, “Azaquinazoline pan-KRas inhibitors” (Mirati Therapeutics, Inc., priority 2020, dated 2025).

Columns and labels:
[1] = target: KRas G12D (Homo sapiens, UniProt P01116, G12D); assay: biochemical;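 also: TR-FRET displacement binding assay on KRas, read after a one-hour incubation at room temperature, IC50 fitted from percent-of-control values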
Experimental: (§1) The ability of a compound to bind to KRas was measured using a TR-FRET displacement assay. […] After a 60-minute incubation at room temperature, the reaction was measured using a BMG LABTECH CLARIO star Plus via TR-FRET. […] The POC values were fit to a 4-parameter IC50 equation and the IC50 value reported.

[2] = target: KRas G12R (Homo sapiens, UniProt P01116, G12R); assay: biochemical;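 also: TR-FRET displacement assay of compound binding to KRas, read after one hour at room temperature, potency from a four-parameter fit of percent-of-control values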
KRas G12R, sequence (P01116 1-169 isoform P01116-2 G12R): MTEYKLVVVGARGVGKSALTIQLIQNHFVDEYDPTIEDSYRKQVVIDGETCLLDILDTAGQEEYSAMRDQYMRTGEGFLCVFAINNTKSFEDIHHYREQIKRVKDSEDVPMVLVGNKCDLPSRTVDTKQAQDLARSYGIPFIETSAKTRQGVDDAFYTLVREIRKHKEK
Experimental: as §1

[3] = target: KRas G12V (Homo sapiens, UniProt P01116, G12V); assay: biochemical;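 also: KRas binding measured by TR-FRET displacement at room temperature, IC50 fitted from percent of control values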
KRas G12V, sequence (P01116 1-169 isoform P01116-2 G12V): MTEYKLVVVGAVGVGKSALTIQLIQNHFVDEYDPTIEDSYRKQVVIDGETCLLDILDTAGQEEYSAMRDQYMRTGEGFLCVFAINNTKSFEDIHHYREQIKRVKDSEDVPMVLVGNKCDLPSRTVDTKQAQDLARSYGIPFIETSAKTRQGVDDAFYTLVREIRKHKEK
Experimental: as §1

[4] = tested on: pERK in HCT116 cells; assay: Inhibition of KRas phosphorylation of ERK (Cisbio HTRF pERK assay); conditions: Homo sapiens, HCT-116, read-out: Inhibition (HTRF IC50) of KRas-mediated Phosphorylation of ERK, HCT116
[5] = tested on: pERK in H727 cells; assay: as above; conditions: Homo sapiens, NCI-H727, read-out: Inhibition (HTRF IC50) of KRas-mediated Phosphorylation of ERK, H727
[6] = tested on: pERK in PSN1 cells; assay: as above; conditions: Homo sapiens, PSN1, 3 h, read-out: Inhibition (HTRF IC50) of KRas-mediated Phosphorylation of ERK, PSN1
[7] = tested on: pERK in ASPC1 cells; assay: as above; conditions: Homo sapiens, ASPC1, read-out: Inhibition (HTRF IC50) of KRas-mediated Phosphorylation of ERK, AsPC-1
[8] = tested on: pERK in H460 cells; assay: as above; conditions: Homo sapiens, NCI-H460, read-out: Inhibition (HTRF IC50) of KRas-mediated Phosphorylation of ERK, H460
[9] = tested on: pERK in MKN1 cells; assay: as above; conditions: Homo sapiens, MKN-1, 3 h, read-out: Inhibition (HTRF IC50) of KRas-mediated Phosphorylation of ERK, MKN1
[10] = tested on: pERK in A549 cells; assay: as above; conditions: Homo sapiens, A549, read-out: Inhibition (HTRF IC50) of KRas-mediated Phosphorylation of ERK, A549

KRas G12D, sequence (P01116 1-169 isoform P01116-2 G12D): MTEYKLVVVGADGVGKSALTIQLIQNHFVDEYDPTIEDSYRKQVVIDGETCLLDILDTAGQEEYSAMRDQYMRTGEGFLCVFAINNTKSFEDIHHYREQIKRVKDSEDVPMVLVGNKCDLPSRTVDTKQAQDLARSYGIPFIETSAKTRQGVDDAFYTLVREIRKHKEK

Row | IC50 [1] | IC50 [2] | IC50 [3] | IC50 [4] | IC50 [5] | IC50 [6] | IC50 [7] | IC50 [8] | IC50 [9] | IC50 [10] | SMILES
1 | 0.01 µM | 0.009 µM | 0.008 µM | 0.954 µM | 0.388 µM | 5.1 µM | 0.186 µM | 0.397 µM | 0.073 µM | 0.515 µM | CCc1c(F)ccc2cc(O)cc(-c3ncc4c(N5CCCC6(CCC(O)C6)C5)nc(OC[C@@]56CCCN5C[C@H](F)C6)nc4c3F)c12 (stereo partly drawn) [Example 510, 7-(7-(8-ethyl-7-fluoro-3-hydroxynaphthalen-1-yl)-8-fluoro-2-(((2R,7aS)-2-fluorotetrahydro-1H-pyrrolizin-7a(5H)-yl)methoxy)pyrido[4,3-d]pyrimidin-4-yl)-7-azaspiro[4.5]decan-2-ol]
2 | ≤ 0.002 µM | ≤ 0.002 µM | ≤ 0.002 µM | 1.72 µM | 0.368 µM | ≥ 10 µM | 0.158 µM | 1.07 µM | 0.046 µM | 0.567 µM | C#Cc1c(F)ccc2cc(O)cc(-c3ncc4c(N5CCCn6nc(N)cc6C5)nc(OC[C@@]56CCCN5C[C@H](F)C6)nc4c3F)c12 [Example 394, 4-(4-(2-amino-7,8-dihydro-4H-pyrazolo[1,5-a][1,4]diazepin-5(6H)-yl)-8-fluoro-2-(((2R,7aS)-2-fluorohexahydro-1H-pyrrolizin-7a-yl)methoxy)pyrido[4,3-d]pyrimidin-7-yl)-5-ethynyl-6-fluoronaphthalen-2-ol]
3 | 0.038 µM | 0.006 µM | 0.007 µM | 0.111 µM | 0.1 µM | ≥ 10 µM | 0.24 µM | 0.047 µM | 0.006 µM | 0.215 µM | CCc1c(F)ccc2cc(O)cc(-c3ncc4c(N5CCOCC6(COC6)C5)nc(OC[C@@]56CCCN5C[C@H](F)C6)nc4c3F)c12 [Example 480, 5-ethyl-6-fluoro-4-(8-fluoro-2-(((2R,7aS)-2-fluorohexahydro-1H-pyrrolizin-7a-yl)methoxy)-4-(2,6-dioxa-9-azaspiro[3.6]decan-9-yl)pyrido[4,3-d]pyrimidin-7-yl)naphthalen-2-ol]
4 | ≤ 0.002 µM | 0.003 µM | ≤ 0.002 µM | 0.368 µM | 0.205 µM | ≥ 10 µM | 0.395 µM | 0.305 µM | 0.041 µM | 0.298 µM | CCc1c(F)ccc2cc(O)cc(-c3ncc4c(N5C[C@H](O)CC[C@@H](O)C5)nc(OC[C@@]56CCCN5C[C@H](F)C6)nc4c3F)c12 [Example 490, (3R,6R)-1-(7-(8-ethyl-7-fluoro-3-hydroxynaphthalen-1-yl)-8-fluoro-2-(((2R,7aS)-2-fluorohexahydro-1H-pyrrolizin-7a-yl)methoxy)pyrido[4,3-d]pyrimidin-4-yl)azepane-3,6-diol]
5 | ≤ 0.002 µM | ≤ 0.002 µM | ≤ 0.002 µM | 0.645 µM | 0.578 µM | ≥ 10 µM | 0.121 µM | 0.117 µM | 0.026 µM | 0.219 µM | CCc1c(F)ccc2cc(O)cc(-c3ncc4c(N5CCCC6(CNS(=O)(=O)N6)C5)nc(OCC5(CN(C)C)CC5)nc4c3F)c12 (centres unmarked) [Example 364, 7-(2-((1-((dimethylamino)methyl)cyclopropyl)methoxy)-7-(8-ethyl-7-fluoro-3-hydroxynaphthalen-1-yl)-8-fluoropyrido[4,3-d]pyrimidin-4-yl)-2-thia-1,3,7-triazaspiro[4.5]decane 2,2-dioxide]
6 | ≤ 0.002 µM | 0.005 µM | ≤ 0.002 µM | 5.43 µM | 0.871 µM | ≥ 10 µM | 0.192 µM | 0.713 µM | 0.08 µM | 1.25 µM | CCc1c(F)ccc2cc(O)cc(-c3ncc4c(N5CCCC6(COC(=O)N6)C5)nc(OC[C@@]56CCCN5C[C@H](F)C6)nc4c3F)c12 (stereo partly drawn) [Example 478, 7-(7-(8-ethyl-7-fluoro-3-hydroxynaphthalen-1-yl)-8-fluoro-2-(((2R,7aS)-2-fluorohexahydro-1H-pyrrolizin-7a-yl)methoxy)pyrido[4,3-d]pyrimidin-4-yl)-3-oxa-1,7-diazaspiro[4.5]decan-2-one]
7 | 0.027 µM | 0.006 µM | 0.008 µM | 0.474 µM | 0.1 µM | ≥ 10 µM | 0.109 µM | 0.162 µM | 0.013 µM | 0.145 µM | CCc1c(F)ccc2cc(O)cc(-c3ncc4c(N5CCOCC(OC)C5)nc(OC[C@@]56CCCN5C[C@H](F)C6)nc4c3F)c12 (stereo partly drawn) [Example 499, 5-ethyl-6-fluoro-4-(8-fluoro-2-(((2R,7aS)-2-fluorotetrahydro-1H-pyrrolizin-7a(5H)-yl)methoxy)-4-(6-methoxy-1,4-oxazepan-4-yl)pyrido[4,3-d]pyrimidin-7-yl)naphthalen-2-ol]
8 | 0.013 µM | 0.011 µM | 0.015 µM | 0.346 µM | 0.551 µM | 7.18 µM | 0.228 µM | 0.182 µM | 0.048 µM | 0.185 µM | CCc1c(F)ccc2cc(O)cc(-c3ncc4c(N5CCCC6(CCC6O)C5)nc(OC[C@@]56CCCN5C[C@H](F)C6)nc4c3F)c12 (stereo partly drawn) [Example 351, 6-(7-(8-ethyl-7-fluoro-3-hydroxynaphthalen-1-yl)-8-fluoro-2-(((2R,7aS)-2-fluorohexahydro-1H-pyrrolizin-7a-yl)methoxy)pyrido[4,3-d]pyrimidin-4-yl)-6-azaspiro[3.5]nonan-1-ol]
9 | ≤ 0.002 µM | ≤ 0.002 µM | ≤ 0.002 µM | 2.21 µM | 0.114 µM | 6.73 µM | 0.238 µM | 0.155 µM | 0.045 µM | 0.247 µM | O=C1CC2(CCCN(c3nc(OC[C@@]45CCCN4C[C@H](F)C5)nc4c(F)c(-c5cc(O)cc6ccc(F)c(Br)c56)ncc34)C2)N1 (stereo partly drawn) [Example 405, 6-(7-(8-bromo-7-fluoro-3-hydroxynaphthalen-1-yl)-8-fluoro-2-(((2R,7aS)-2-fluorohexahydro-1H-pyrrolizin-7a-yl)methoxy)pyrido[4,3-d]pyrimidin-4-yl)-1,6-diazaspiro[3.5]nonan-2-one]
10 | ≤ 0.002 µM | 0.003 µM | ≤ 0.002 µM | – | 0.128 µM | ≥ 10 µM | 0.546 µM | 0.124 µM | 0.026 µM | 0.39 µM | CCc1c(F)ccc2cc(O)cc(-c3ncc4c(N5CC6C(=O)NC(=O)C6(C)C5)nc(OC[C@@]56CCCN5C[C@H](F)C6)nc4c3F)c12 (stereo partly drawn) [Example 482, 5-(7-(8-ethyl-7-fluoro-3-hydroxynaphthalen-1-yl)-8-fluoro-2-(((2R,7aS)-2-fluorohexahydro-1H-pyrrolizin-7a-yl)methoxy)pyrido[4,3-d]pyrimidin-4-yl)-3a-methyltetrahydropyrrolo[3,4-c]pyrrole-1,3(2H,3aH)-dione]
11 | ≤ 0.002 µM | ≤ 0.002 µM | ≤ 0.002 µM | 0.19 µM | 0.016 µM | 0.748 µM | 0.195 µM | 0.175 µM | 0.008 µM | 0.114 µM | C#Cc1c(F)ccc2cc(O)cc(-c3ncc4c(N5CC6CC(O)CC5C6)nc(OC[C@@]56CCCN5C[C@H](F)C6)nc4c3F)c12 (stereo partly drawn) [Example 390, 6-(7-(8-ethynyl-7-fluoro-3-hydroxynaphthalen-1-yl)-8-fluoro-2-(((2R,7aS)-2-fluorohexahydro-1H-pyrrolizin-7a-yl)methoxy)pyrido[4,3-d]pyrimidin-4-yl)-6-azabicyclo[3,2,1]octan-3-ol]
12 | 0.006 µM | ≤ 0.002 µM | ≤ 0.002 µM | 0.487 µM | 0.079 µM | 3.81 µM | 0.426 µM | 0.182 µM | 0.02 µM | 0.096 µM | Oc1cc(-c2ncc3c(N4CC5CC(O)CC4C5)nc(OC[C@@]45CCCN4C[C@H](F)C5)nc3c2F)c2c(Br)c(F)ccc2c1 (stereo partly drawn) [Example 403, 6-(7-(8-bromo-7-fluoro-3-hydroxynaphthalen-1-yl)-8-fluoro-2-(((2R,7aS)-2-fluorohexahydro-1H-pyrrolizin-7a-yl)methoxy)pyrido[4,3-d]pyrimidin-4-yl)-6-azabicyclo[3.2.1]octan-3-ol]
